Experimental data published in ChEMBL document CHEMBL1201862, “PubChem BioAssay data set” (2004).
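These data come from cells grown in 96-well plates and exposed to compound for 48 hours at five concentrations. The concentration for 50% growth inhibition is given as GI50.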 Activity calls are given as the source filed them. Cut-off read from the data, not from the text of the source: active = GI50 up to about 1.1 µM and inactive = higher.

Columns and labels:
Assay in all cases: growth of human tumour cells (NCI), 48 h
[1] = test system: EKVX
[2] = test system: Malme-3M
[3] = test system: SK-MEL-5
[4] = test system: OVCAR-4
[5] = test system: U-251
[6] = test system: K562
[7] = test system: A498
[8] = test system: SF-539
[9] = test system: LOX IMVI
[10] = test system: CAKI-1
[11] = test system: NCI-H226
[12] = test system: NCI-H460
[13] = test system: UACC-257
[14] = test system: OVCAR-8
[15] = test system: MDA-MB-231
[16] = test system: MDA-MB-435
[17] = test system: Hs-578T
[18] = test system: PC-3
[19] = test system: SN12C
[20] = test system: DMS-114

| SMILES | GI50 [1] | GI50 [2] | GI50 [3] | GI50 [4] | GI50 [5] | GI50 [6] | GI50 [7] | GI50 [8] | GI50 [9] | GI50 [10] | GI50 [11] | GI50 [12] | GI50 [13] | GI50 [14] | GI50 [15] | GI50 [16] | GI50 [17] | GI50 [18] | GI50 [19] | GI50 [20] |
| --- | --- | --- | --- | --- | --- | --- | --- | --- | --- | --- | --- | --- | --- | --- | --- | --- | --- | --- | --- | --- |
| CC1(C)C2CCC3(OCCO3)C1C(O)C2 (stereo not given) | > 100 µM (inactive) | > 100 µM (inactive) | > 100 µM (inactive) | > 100 µM (inactive) | > 100 µM (inactive) | > 100 µM (inactive) | > 100 µM (inactive) | > 100 µM (inactive) | > 100 µM (inactive) | > 100 µM (inactive) | > 100 µM (inactive) | > 100 µM (inactive) | > 100 µM (inactive) | > 100 µM (inactive) | – | – | – | – | – | – |
| O=C(O)CCC(NC(=O)c1ccc(Nc2nc3cc(C(F)(F)F)ccc3nc2C(=O)O)cc1)C(=O)O (stereo not given) | > 100 µM (inactive) | > 100 µM (inactive) | 79.8 µM (inactive) | – | > 100 µM (inactive) | > 100 µM (inactive) | > 100 µM (inactive) | > 100 µM (inactive) | > 100 µM (inactive) | – | > 100 µM (inactive) | > 100 µM (inactive) | > 100 µM (inactive) | > 100 µM (inactive) | > 100 µM (inactive) | > 100 µM (inactive) | > 100 µM (inactive) | > 100 µM (inactive) | – | – |
| Cn1c2c(c3ccccc31)CCN(CCCCN1CCCCC1)C2=O | > 100 µM (inactive) | – | > 100 µM (inactive) | > 100 µM (inactive) | > 100 µM (inactive) | > 100 µM (inactive) | > 100 µM (inactive) | > 100 µM (inactive) | – | > 100 µM (inactive) | – | > 100 µM (inactive) | 62.7 µM (inactive) | > 100 µM (inactive) | – | – | – | – | > 100 µM (inactive) | – |
| Clc1ccc2c(c1)CC1C[N+]3=C(CCCCC3)C1=C2 (stereo not given) | 45.6 µM (inactive) | 63 µM (inactive) | 30.3 µM (inactive) | 54.8 µM (inactive) | 23.7 µM (inactive) | > 100 µM (inactive) | 18.3 µM (inactive) | – | 43.3 µM (inactive) | > 100 µM (inactive) | 69.7 µM (inactive) | 33 µM (inactive) | 28.8 µM (inactive) | 28.3 µM (inactive) | 33 µM (inactive) | 59.2 µM (inactive) | 85.3 µM (inactive) | 42.1 µM (inactive) | 80.4 µM (inactive) | – |
| O=C1CN(c2ccccc2)C(=O)C1C(=O)Nc1ccc(Cl)c(Cl)c1 (stereo not given) | – | – | 1.36 µM (inactive) | 11.7 µM (inactive) | 3.78 µM (inactive) | 0.604 µM (active) | – | 3.85 µM (inactive) | – | – | – | – | 8.28 µM (inactive) | – | – | – | – | – | 4.73 µM (inactive) | 2.76 µM (inactive) |
| CCOC(=O)c1nc2cc(C(F)(F)F)ccc2nc1Oc1ccc(F)cc1 | > 100 µM (inactive) | > 100 µM (inactive) | > 100 µM (inactive) | 69.5 µM (inactive) | > 100 µM (inactive) | > 100 µM (inactive) | > 100 µM (inactive) | > 100 µM (inactive) | > 100 µM (inactive) | > 100 µM (inactive) | > 100 µM (inactive) | > 100 µM (inactive) | > 100 µM (inactive) | > 100 µM (inactive) | > 100 µM (inactive) | > 100 µM (inactive) | > 100 µM (inactive) | > 100 µM (inactive) | > 100 µM (inactive) | – |
| N#CC(=N)c1ncn(-c2ccccc2N)c1N | > 100 µM (inactive) | > 100 µM (inactive) | > 100 µM (inactive) | > 100 µM (inactive) | > 100 µM (inactive) | > 100 µM (inactive) | > 100 µM (inactive) | > 100 µM (inactive) | > 100 µM (inactive) | > 100 µM (inactive) | > 100 µM (inactive) | > 100 µM (inactive) | > 100 µM (inactive) | > 100 µM (inactive) | > 100 µM (inactive) | > 100 µM (inactive) | > 100 µM (inactive) | > 100 µM (inactive) | > 100 µM (inactive) | – |
| COc1ccc([C@H]2C=[N+]([O-])O[C@H](OC3CCCC3)[C@@H]2OC(C)=O)cc1OC | 22.3 µM (inactive) | 25.9 µM (inactive) | 13.1 µM (inactive) | 33.6 µM (inactive) | 35 µM (inactive) | 39.3 µM (inactive) | > 100 µM (inactive) | 16.4 µM (inactive) | 15.4 µM (inactive) | 14 µM (inactive) | 47.6 µM (inactive) | 43.9 µM (inactive) | 19.7 µM (inactive) | 20.7 µM (inactive) | 32.7 µM (inactive) | 25.4 µM (inactive) | 29.9 µM (inactive) | 44.8 µM (inactive) | – | – |
| CCOC(=O)CC(NC(=O)c1ccc(/N=N/N(C)C)cc1)C(=O)OCC (stereo not given) | > 100 µM (inactive) | > 100 µM (inactive) | > 100 µM (inactive) | > 100 µM (inactive) | > 100 µM (inactive) | > 100 µM (inactive) | > 100 µM (inactive) | > 100 µM (inactive) | > 100 µM (inactive) | > 100 µM (inactive) | > 100 µM (inactive) | > 100 µM (inactive) | > 100 µM (inactive) | > 100 µM (inactive) | – | – | – | – | > 100 µM (inactive) | – |
| CCOC(=O)c1csc(NC(=O)CCCC#N)n1 | – | – | > 100 µM (inactive) | > 100 µM (inactive) | > 100 µM (inactive) | > 100 µM (inactive) | > 100 µM (inactive) | > 100 µM (inactive) | > 100 µM (inactive) | > 100 µM (inactive) | > 100 µM (inactive) | > 100 µM (inactive) | > 100 µM (inactive) | > 100 µM (inactive) | > 100 µM (inactive) | > 100 µM (inactive) | > 100 µM (inactive) | > 100 µM (inactive) | – | – |
| Cc1ccc([N+](=O)[O-])cc1S(=O)(=O)Nc1ccc(C2=NNC(c3cccs3)C2)cc1 (stereo not given) | 18.8 µM (inactive) | 23.4 µM (inactive) | 17.4 µM (inactive) | 22 µM (inactive) | – | 17.4 µM (inactive) | 20.4 µM (inactive) | 48.1 µM (inactive) | 28.7 µM (inactive) | 30.5 µM (inactive) | 49.7 µM (inactive) | 25.4 µM (inactive) | 26.9 µM (inactive) | 54.2 µM (inactive) | – | 35.6 µM (inactive) | 58.2 µM (inactive) | 33.3 µM (inactive) | 29.2 µM (inactive) | – |
| C1CCC2(CC1)O[C@@H]1[C@@H](O2)[C@@H](O[C@H]2O[C@@H]3COC4(CCCCC4)O[C@H]3[C@@H]3OC4(CCCCC4)O[C@@H]23)O[C@@H]2COC3(CCCCC3)O[C@@H]12 | > 100 µM (inactive) | > 100 µM (inactive) | > 100 µM (inactive) | > 100 µM (inactive) | > 100 µM (inactive) | > 100 µM (inactive) | > 100 µM (inactive) | > 100 µM (inactive) | > 100 µM (inactive) | > 100 µM (inactive) | – | – | > 100 µM (inactive) | > 100 µM (inactive) | > 100 µM (inactive) | > 100 µM (inactive) | > 100 µM (inactive) | > 100 µM (inactive) | > 100 µM (inactive) | – |
| Fc1c(F)c(F)c(CSc2nc3ccccc3[nH]2)c(F)c1F | > 100 µM (inactive) | > 100 µM (inactive) | > 100 µM (inactive) | > 100 µM (inactive) | > 100 µM (inactive) | > 100 µM (inactive) | > 100 µM (inactive) | > 100 µM (inactive) | > 100 µM (inactive) | > 100 µM (inactive) | > 100 µM (inactive) | > 100 µM (inactive) | > 100 µM (inactive) | > 100 µM (inactive) | > 100 µM (inactive) | > 100 µM (inactive) | > 100 µM (inactive) | > 100 µM (inactive) | > 100 µM (inactive) | – |
| c1ccc(/N=C2/SC3=Nc4cccc5cccc(c45)N3/C2=N/c2ccccc2)cc1 | – | > 100 µM (inactive) | > 100 µM (inactive) | – | > 100 µM (inactive) | > 100 µM (inactive) | > 100 µM (inactive) | – | – | > 100 µM (inactive) | > 100 µM (inactive) | > 100 µM (inactive) | – | > 100 µM (inactive) | > 100 µM (inactive) | > 100 µM (inactive) | > 100 µM (inactive) | > 100 µM (inactive) | > 100 µM (inactive) | – |
| COc1ccc2c(C)cc(N/N=C/c3sccc3C)nc2c1 | > 10 µM (inactive) | 6.95 µM (inactive) | 6.24 µM (inactive) | 20.9 µM (inactive) | 17.9 µM (inactive) | – | – | 14.3 µM (inactive) | 7.59 µM (inactive) | – | 10 µM (inactive) | – | 10.1 µM (inactive) | 13.4 µM (inactive) | 1.43 µM (inactive) | 16.6 µM (inactive) | 12.5 µM (inactive) | 12.9 µM (inactive) | 7.11 µM (inactive) | – |
| CCOC(=O)CNC(=O)C(CCC(=O)N(C)O)NC(=O)CCC(N)C(=O)O (stereo not given) | > 100 µM (inactive) | – | > 100 µM (inactive) | > 100 µM (inactive) | > 100 µM (inactive) | > 100 µM (inactive) | > 100 µM (inactive) | > 100 µM (inactive) | > 100 µM (inactive) | > 100 µM (inactive) | > 100 µM (inactive) | > 100 µM (inactive) | > 100 µM (inactive) | > 100 µM (inactive) | > 100 µM (inactive) | > 100 µM (inactive) | > 100 µM (inactive) | > 100 µM (inactive) | > 100 µM (inactive) | – |
| COC(=O)c1cccc(C(=O)OC)c1 | – | > 100 µM (inactive) | – | > 100 µM (inactive) | > 100 µM (inactive) | – | > 100 µM (inactive) | – | > 100 µM (inactive) | > 100 µM (inactive) | > 100 µM (inactive) | > 100 µM (inactive) | > 100 µM (inactive) | – | – | – | – | – | > 100 µM (inactive) | – |
